Assay [1] is described as follows: Inhibition of human constitutive proteasome subunit beta type-1 in human erythrocytes using fluorogenic substrate by […].
Assay [2] can be described thus: Inhibition of human constitutive proteasome subunit beta type-2 in human erythrocytes using fluorogenic substrate by […].

Each structure is given as a SMILES string. Where only a bound is given, the exact number is not on record here.

For orientation: IC50 means the concentration that inhibits the measured activity by half. The low end stands for greater potency in that assay, the high end for weaker potency in that assay. For the compound `CCC(C)/C=C(\C)c1cc2c(cn1)C(=O)c1c(cc(OC)c(O)c1O)C2=O` (stereo unspecified), the IC50 in assay [1] and in assay [2] was above 50 µM each time.

As for `CCC(C)/C=C(\C)C1=Cc2cc3c(c(O)c2CO1)C(=O)C(O)(CC(C)=O)C(OC)=C3` (stereo unspecified), the IC50 in assay [1] is 19 µM; in assay [2], above 50 µM.

Consider `CCC(C)/C=C(\C)c1cc2c(cn1)C(=O)C1=C(N)C(=O)C(OC)=CC1=C2` (stereo unspecified), for which the figures for the IC50 in assay [1] and in assay [2] were 17 µM and 42 µM, respectively.
